Converted amounts (≈) assume the structure as drawn. The source made the active and inactive calls. No cut-off for these calls is given here.
Experiments:
[1] = system: Streptococcus gordonii; experiment: Antimicrobial activity against wild type Streptococcus gordonii; format: functional
[2] = system: Streptococcus gordonii; experiment: Antimicrobial activity against penicillin-resistant Streptococcus gordonii PR1_2evolved mutant co-cultured with wild type Streptococcus gordoni assessed as loss of viability at stationary phase of growth at 0.5 ug/mL after 15 hrs; format: functional, organism-based
[3] = system: Streptococcus gordonii; experiment: Antimicrobial activity against penicillin-resistant Streptococcus gordonii PR1_2 mutant assessed as logarithmic reduction in viability at stationary phase of growth after 70 hrs; format: functional
[4] = system: Streptococcus gordonii; experiment: Ratio of generation time for wild type Streptococcus gordonii to generation time for penicillin-resistant Streptococcus gordonii PR1_2 mutant at mid-logarithmic phase of growth; format: functional
[5] = system: Streptococcus gordonii; experiment: Antimicrobial activity against penicillin-resistant Streptococcus gordonii PR1_2 mutant; format: functional
[6] = system: Streptococcus gordonii; experiment: Antimicrobial activity against penicillin-resistant Streptococcus gordonii PR1_2 mutant assessed as generation time at mid-logarithmic phase of growth; format: functional
[7] = system: Streptococcus gordonii; experiment: Ratio of generation time for wild type Streptococcus gordonii to generation time for penicillin-resistant Streptococcus gordonii PR1_2evolved mutant at mid-logarithmic phase of growth; format: functional
[8] = system: Streptococcus gordonii; experiment: Antimicrobial activity against penicillin-resistant Streptococcus gordonii PR1_2evolved mutant co-cultured with wild type Streptococcus gordoni assessed as loss of viability at stationary phase of growth at 0.5 ug/mL after 70 hrs relative to wild type; format: functional, organism-based
[9] = system: Streptococcus gordonii; experiment: Antimicrobial activity against wild type Streptococcus gordonii assessed as generation time at mid-logarithmic phase of growth; format: functional
[10] = system: Streptococcus gordonii; experiment: Antimicrobial activity against wild type Streptococcus gordonii assessed as logarithmic reduction in viability at stationary phase of growth after 70 hrs; format: functional
[11] = system: Streptococcus gordonii; experiment: Antimicrobial activity against penicillin-resistant Streptococcus gordonii PR1_2evolved mutant assessed as generation time at mid-logarithmic phase of growth; format: functional

Structure (SMILES): CC1(C)S[C@@H]2[C@H](NC(=O)Cc3ccccc3)C(=O)N2[C@H]1C(=O)O [PENICILLIN G]
- MIC [1]: 0.008 µg/mL (≈ 0.0239 µM)
- Activity [2]: Active
- Activity [3]: >4 log10CFU/ml
- Ratio [4]: 0.8
- MIC [5]: 2 µg/mL (≈ 5.98 µM)
- Activity [6]: 60.6 min
- Ratio [7]: 1.06
- Activity [8]: Active
- Activity [9]: 48.4 min
- Activity [10]: 2 log10CFU/ml
- Activity [11]: 45 min

Source: ChEMBL document CHEMBL1152468, “Fitness cost and impaired survival in penicillin-resistant Streptococcus gordonii isolates selected in the laboratory” (2008)
